Data from ChEMBL document CHEMBL5505960, “Synthesis and evaluation of butylphthalide-scutellarein hybrids as multifunctional agents for the treatment of Alzheimer's disease” (Eur J Med Chem, 2024).
Activity calls are given as the source filed them. No cut-off for these calls is given here.

Assays:
[1] = biological target: Amyloid-beta precursor protein (Homo sapiens) (UniProt P05067); assay: Inhibition of amyloid beta (1 to 42) (unknown origin) self induced aggregation at 25 uM by ThT fluorescence assay relative to control
[2] = biological target: Amyloid-beta precursor protein (Homo sapiens) (UniProt P05067); assay: Inhibition of Cu2+ induced amyloid beta (1 to 42)(unknown origin) fibrillation at 25 uM by ThT fluorescence assay relative to control
[3] = biological target: Amyloid-beta precursor protein (Homo sapiens) (UniProt P05067); assay: Disaggregation of self-induced amyloid beta (1 to 42) (unknown origin) fibrils at 25 uM by ThT fluorescence assay relative to control
HT-22 [4] = assay: Neuroprotective activity against amyloid beta (1 to 42)-induced injury in mouse HT-22 cells assessed as reversal of reduced cell synapse length at 2.5 to 10 uM measured after 24 hrs […]; format: functional, cell-based; settings: dose 2.5-10 µM
HT-22 [5] = assay: Neuroprotective activity against amyloid beta (1 to 42)-induced injury in mouse HT-22 cells assessed as increase in cell viability at 10 uM incubated for 24 hrs by MTT assay relative to control; format: functional
HT-22 [6] = assay: Neuroprotective activity against amyloid beta (1 to 42)-induced injury in mouse HT-22 cells assessed as increase in cell viability at 2.5 uM incubated for 24 hrs by MTT assay relative to control; format: functional
PC-12 [7] = assay: Cytotoxicity against rat PC12 cells at 25 uM measured after 24 hrs by MTT assay; format: functional, cell-based
PC-12 [8] = assay: Neuroprotective activity against H2O2 induced rat PC12 cells assessed as increase in cell viability at 10 uM measured after 24 hrs by MTT assay relative to control; format: functional
BV-2 [9] = assay: Antineuroinflammatory activity in LPS-induced mouse BV-2 cells assessed as inhibition of NO release at 0.5 uM preincubated for 30 mins followed by LPS stimulation and measured after 24 hrs relative to control; format: functional; design: scale not given: the % may be the effect or the level left; settings: time 24.5 hrs
BV-2 [10] = assay: Antineuroinflammatory activity in LPS-induced mouse BV-2 cells assessed as inhibition of TNF-alpha release at 0.5 uM preincubated for 30 mins followed by LPS stimulation and measured after 24 hrs relative to control; format: functional; design: scale not given: the % may be the effect or the level left; settings: time 24.5 hrs
BV-2 [11] = assay: Antineuroinflammatory activity in LPS-induced mouse BV-2 cells assessed as inhibition of TNF-alpha release at 2.5 uM preincubated for 30 mins followed by LPS stimulation and measured after 24 hrs relative to control; format: functional; design: scale not given: the % may be the effect or the level left; settings: time 24.5 hrs
BV-2 [12] = assay: Antineuroinflammatory activity in LPS-induced mouse BV-2 cells assessed as inhibition of IL-1 beta release at 2.5 uM preincubated for 30 mins followed by LPS stimulation and measured after 24 hrs relative to control; format: functional; design: scale not given: the % may be the effect or the level left; settings: time 24.5 hrs
BV-2 [13] = assay: Antineuroinflammatory activity in LPS-induced mouse BV-2 cells assessed as inhibition of IL-1 beta release at 10 uM preincubated for 30 mins followed by LPS stimulation and measured after 24 hrs relative to control; format: functional; design: scale not given: the % may be the effect or the level left; settings: time 24.5 hrs
BV-2 [14] = assay: Antineuroinflammatory activity in LPS-induced mouse BV-2 cells assessed as inhibition of TNF-alpha release preincubated for 30 mins followed by LPS stimulation and measured after 24 hrs; format: functional, cell-based; settings: dose 0.5-10 µM, time 24.5 hrs
BV-2 [15] = assay: Antineuroinflammatory activity in LPS-induced mouse BV-2 cells assessed as inhibition of IL-1 beta release preincubated for 30 mins followed by LPS stimulation and measured after 24 hrs; format: functional, cell-based; settings: dose 0.5-10 µM, time 24.5 hrs
[16] = Half life in Balb/C mouse plasma at 30 mg/kg, IG measured upto 8 hrs by LC-MS analysis; format: ADME, organism-based; settings: po
[17] = Cmax in Balb/C mouse brain at 30 mg/kg, IG measured upto 8 hrs by LC-MS analysis; format: ADME, organism-based; settings: po
[18] = Ratio of AUC (0 to t) in Balb/C mouse brain at 30 mg/kg, IG measured upto 8 hrs by LC-MS analysis; format: ADME, organism-based; settings: po
Mus musculus [19] = assay: Neuroprotective activity in C57BL/6 mouse assessed as amelioration of sodium nitrite induced memory impairement at 1.1 to 9.9 mg/kg, IG administered daily for 7 days; format: functional, organism-based; settings: dose 1.1-9.9 mg/kg, time 7.0 day
Mus musculus [20] = assay: Neuroprotective activity in Sodium nitrite induced cognition impairement in C57BL/6 mouse model assessed as reduction in number of error time at 1.1 to 9.9 mg/kg, IG administered daily for 7 days; format: functional, organism-based; settings: dose 1.1-9.9 mg/kg, time 7.0 day
Mus musculus [21] = assay: Neuroprotective activity in Sodium nitrite induced cognition impairement in C57BL/6 mouse model assessed as decrease in MAD level administered daily as IG for 7 days; format: functional, organism-based; settings: dose 1.1-9.9 mg/kg, time 7.0 day
Mus musculus [22] = assay: Neuroprotective activity in Sodium nitrite induced cognition impairement in C57BL/6 mouse model assessed as decrease in MAD level at 9.9 mg/kg, IG administered daily for 7 days; format: functional; settings: time 7 day
Mus musculus [23] = assay: Neuroprotective activity in Sodium nitrite induced cognition impairement in C57BL/6 mouse model assessed as increase in SOD activity administered daily as IG for 7 days; format: functional, organism-based; settings: dose 1.1-9.9 mg/kg, time 7.0 day
Mus musculus [24] = assay: Neuroprotective activity against Abeta42 induced cognition impairement in AD mouse model assessed as reduction in number of error at 1.1 to 9.9 mg/kg, IG administered daily for 7 days by passive avoidance test; format: functional, organism-based; settings: dose 1.1-9.9 mg/kg, time 7.0 day
Mus musculus [25] = assay: Neuroprotective activity against Abeta42 induced cognition impairement in AD mouse model assessed as alleviation of learning deficit administered daily as IG for 7 days by passive avoidance test; format: functional, organism-based; settings: time 7.0 day
[26] = biological target: Amyloid-beta precursor protein (Homo sapiens) (UniProt P05067); assay: Inhibition of amyloid beta (1 to 42) (unknown origin) fibrillation assessed as reversal of A-beta 1-42 induced morphological changes at 25 uM measured after 24 hrs by TEM analysis
[27] = biological target: Amyloid-beta precursor protein (Homo sapiens) (UniProt P05067); assay: Inhibition of amyloid beta (1 to 42) (unknown origin) fibrillation assessed as short amyloid beta fibrils at 25 uM measured after 24 hrs by TEM analysis
[28] = biological target: Amyloid-beta precursor protein (Homo sapiens) (UniProt P05067); assay: Inhibition of amyloid beta (1 to 42) (unknown origin) fibrillation assessed as decrease in thickness of amyloid beta fibrils at 25 uM measured after 24 hrs by TEM analysis
[29] = biological target: Amyloid-beta precursor protein (Homo sapiens) (UniProt P05067); assay: Inhibition of amyloid beta (1 to 42) (unknown origin) fibrillation assessed as reduction in Cu2+ induced shorter fibrils at 25 uM measured after 24 hrs by TEM analysis
[30] = Metal chelating activity assessed as compound-Zn2+ complex formation by measuring bathochromic shift at 301 to 345nm in the presence of ZnCl2 by UV-Visible spectrophotometric analysis
[31] = Metal chelating activity assessed as compound-Al3+ complex formation by measuring bathochromic shift at 301 to 330nm in the presence of AlCl3 by UV-Visible spectrophotometric analysis
[32] = Metal chelating activity assessed as compound-Cu2+ complex formation at stoichiometric ratio of 1:1 in presence of CuCl2 by UV-Vis spectrometry
[33] = Metal chelating activity assessed as compound-Cu2+ complex formation by measuring hyperchromic shift in the presence of CuCl2 by UV-Visible spectrophotometric analysis
[34] = Metal chelating activity assessed as compound-Fe2+ complex formation by measuring hyperchromic shift in the presence of FeSO4 by UV-Visible spectrophotometric analysis
[35] = Metal chelating activity assessed as compound-Zn2+ complex formation by measuring hyperchromic shift in the presence of ZnCl2 by UV-Visible spectrophotometric analysis
[36] = Metal chelating activity assessed as compound-Al3+ complex formation by measuring hyperchromic shift in the presence of AlCl3 by UV-Visible spectrophotometric analysis

Amyloid-beta precursor protein (Homo sapiens), sequence (P05067 whole entry): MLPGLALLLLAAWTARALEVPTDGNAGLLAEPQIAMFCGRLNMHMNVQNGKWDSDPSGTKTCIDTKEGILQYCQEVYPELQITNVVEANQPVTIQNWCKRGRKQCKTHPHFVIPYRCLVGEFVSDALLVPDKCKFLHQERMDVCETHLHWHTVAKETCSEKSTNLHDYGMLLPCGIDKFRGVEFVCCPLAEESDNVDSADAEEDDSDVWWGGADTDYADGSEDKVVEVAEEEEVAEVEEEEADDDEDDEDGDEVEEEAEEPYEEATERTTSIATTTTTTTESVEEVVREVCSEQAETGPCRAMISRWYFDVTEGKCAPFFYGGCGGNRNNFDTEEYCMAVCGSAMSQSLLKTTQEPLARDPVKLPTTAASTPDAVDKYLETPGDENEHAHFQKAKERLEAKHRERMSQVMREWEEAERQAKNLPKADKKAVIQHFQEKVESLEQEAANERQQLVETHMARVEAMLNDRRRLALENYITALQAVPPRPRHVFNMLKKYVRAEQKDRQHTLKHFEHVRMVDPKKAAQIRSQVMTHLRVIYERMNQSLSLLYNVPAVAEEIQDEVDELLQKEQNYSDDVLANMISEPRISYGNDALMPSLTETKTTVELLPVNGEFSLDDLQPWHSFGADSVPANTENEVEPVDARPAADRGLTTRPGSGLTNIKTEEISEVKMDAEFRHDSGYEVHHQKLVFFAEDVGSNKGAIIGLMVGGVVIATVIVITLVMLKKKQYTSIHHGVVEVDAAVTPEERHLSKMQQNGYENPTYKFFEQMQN

Work on `CCCCCC1OC(=O)c2c1cc(OC)c(O)c2O` (stereo unspecified) yielded an inhibition [1] of 90.2%, an inhibition [2] of 35.4% and an Activity [3] of 42.5%. The Activity (HT-22 [4]) was “Active”, the Activity (HT-22 [5]) was 89.2% and the Activity (HT-22 [6]) was 76.3%. For the same compound, the Activity (PC-12 [7]) was “inactive”, the Activity (PC-12 [8]) was 80.7% and the Activity (BV-2 [9]) was 31.1%. For the same compound, the Activity (BV-2 [10]) was 20%, the Activity (BV-2 [11]) was 40.1% and the Activity (BV-2 [12]) was 49.2%. The Activity (BV-2 [13]) was 62.9%, the Activity (BV-2 [14]) was “Dose-Dependent Effect” and the Activity (BV-2 [15]) was “Dose-Dependent Effect”. The half-life [16] was 51 min, the Cmax [17] was 337 ng/mL and the Kp at 8 h [18] was 0.8. For the same compound, the Activity (Mus musculus [19]) was “Active”, the Activity (Mus musculus [20]) was “Active” and the Activity (Mus musculus [21]) was “Dose-Dependent Effect”. For the same compound, the Activity (Mus musculus [22]) was 2.8 nmol/mg, the Activity (Mus musculus [23]) was “Dose-Dependent Effect” and the Activity (Mus musculus [24]) was “Active”. For the same compound, the Activity (Mus musculus [25]) was “Dose-Dependent Effect”, the inhibition [26] was “Active” and the inhibition [27] was “Active”. For the same compound, the inhibition [28] was “Active”, the inhibition [29] was “Active” and the Activity [30] was “Active”. For the same compound, the Activity [31] was “Active”, the Activity [32] was “Active” and the Activity [33] was “Active”. The Activity [34] was “Active”, the Activity [35] was “Active” and the Activity [36] was “Active”.
